What was measured:
Assay type in all cases: in vivo
[1] = tested on: corn (Zea mays L.); experiment: Test Example 1: foliar treatment, upland pot test, corn; settings: 31 g/ha active ingredient, observed 17th to 25th day after application; for inhibition at 31 g/ha: Zea mays, read-out: Growth inhibition rate (%) Corn
Source text: (§1) Upland field soil was put into a 1/170,000 hectare pot, and seeds of various plants were sown. When the respective plants reached predetermined leaf stage ((1) barnyardgrass (Echinochloa crus-galli L.): 1.0 to 3.0 leaf stage, (2) crabgrass (Digitaria sanguinalis L.): 1.0 to 3.0 leaf stage, (3) green foxtail (Setaria viridis L.): 1.0 to 3.0 leaf stage, (4) redroot pigweed (Amaranthus retroflexus L.): cotyledon stage to 2.0 leaf stage, (5) prickly sida (Sida spinosa L.): cotyledon stage to 1.0 leaf stage, (6) velvetleaf (Abutilon theophrasti MEDIC.): 0.1 to 1.5 leaf stage, (7) rice (Oryza sativa L.): 1.0 to 3.0 leaf stage, (8) wheat (Triticum spp.): 1.7 to 3.4 leaf stage, (9) corn (Zea mays L.): 2.0 to 3.5 leaf stage, (10) soybean (Glycine max Merr.): primary leaf stage to 0.4 leaf stage), wettable powders or emulsifiable concentrates of the compounds of the above formula (I) prepared in accordance with a conventional preparation method, were weighed so that the active ingredients became the prescribed amounts, and diluted with water in an amount corresponding to 500 liter per 1 hectare (containing 0.1 vol % of “KUSARINOH”, manufactured by NIHON NOHYAKU CO., LTD. as an agricultural spreader). The spray solutions thus prepared were applied for foliar treatment by a small sprayer.
(§2) On the 17th to 25th day after application, the state of growth of the respective plants was visually observed, and the herbicidal effect was evaluated by a growth inhibition rate (%) of 0 (equivalent to the non-treated area) to 100% (complete kill).

[2] = tested on: velvetleaf (Abutilon theophrasti MEDIC.); experiment: Test Example 2: soil application on the day after sowing, velvetleaf; settings: 250 g/ha active ingredient, observed 19th to 28th day after application; for inhibition at 250 g/ha: Abutilon theophrasti, read-out: Growth inhibition rate (%) Velvetleaf
Source text: (§3) Upland field soil was put into a 1/170,000 hectare pot, and seeds of various plants barnyardgrass (Echinochloa crus-galli L.), crabgrass (Digitaria sanquinalis L.), green foxtail (Setaria viridis L.), redroot pigweed (Amaranthus retroflexus L.), prickly sida (Sida spinosa L.), velvetleaf (Abutilon theophrasti MEDIC.), rice (Oryza sativa L.), wheat (Triticum spp.), corn (Zea mays L.) and soybean (Glycine max Merr.)) were sown. On the day after sowing, wettable powders or emulsifiable concentrates of the compounds of the above formula (I) prepared in accordance with a conventional preparation method, were weighed so that the active ingredients became the prescribed amounts, and diluted with water in an amount corresponding to 500 liter per 1 hectare, followed by soil application with a small sprayer.
(§4) On the 19th to 28th day after the application, the state of growth of the respective plants was visually observed, and the herbicidal effect was evaluated by a growth inhibition rate (%) of from 0 (equivalent to the non-treated area) to 100% (complete kill).

[3] = tested on: crabgrass (Digitaria sanquinalis L.); experiment: Test Example 2: soil application on the day after sowing, crabgrass; settings: 250 g/ha active ingredient, observed 19th to 28th day after application; for inhibition at 250 g/ha: Digitaria, read-out: Growth inhibition rate (%) Crabgrass
Source text: as §3, §4

[4] = tested on: barnyardgrass (Echinochloa crus-galli L.); experiment: Test Example 1: foliar treatment, upland pot test, barnyardgrass; settings: 31 g/ha active ingredient, observed 17th to 25th day after application; for inhibition at 31 g/ha: Echinochloa crus-galli, read-out: Growth inhibition rate (%) Barnyardgrass
Source text: as §1, §2

[5] = tested on: prickly sida (Sida spinosa L.); experiment: Test Example 2: soil application on the day after sowing, prickly sida; settings: 250 g/ha active ingredient, observed 19th to 28th day after application; for inhibition at 250 g/ha: Sida spinosa, read-out: Growth inhibition rate (%) Prickly sida
Source text: as §3, §4

[6] = tested on: velvetleaf (Abutilon theophrasti MEDIC.); experiment: Test Example 1: foliar treatment, upland pot test, velvetleaf; settings: 31 g/ha active ingredient, observed 17th to 25th day after application; for inhibition at 31 g/ha: Abutilon theophrasti, read-out: Growth inhibition rate (%) Velvetleaf
Source text: as §1, §2

[7] = tested on: green foxtail (Setaria viridis L.); experiment: Test Example 2: soil application on the day after sowing, green foxtail; settings: 250 g/ha active ingredient, observed 19th to 28th day after application; for inhibition at 250 g/ha: Setaria viridis, read-out: Growth inhibition rate (%) Green foxtail
Source text: as §3, §4

[8] = tested on: soybean (Glycine max Merr.); experiment: Test Example 2: soil application on the day after sowing, soybean; settings: 250 g/ha active ingredient, observed 19th to 28th day after application; for inhibition at 250 g/ha: Glycine max, read-out: Growth inhibition rate (%) Soybean
Source text: as §3, §4

[9] = tested on: prickly sida (Sida spinosa L.); experiment: Test Example 1: foliar treatment, upland pot test, prickly sida; settings: 31 g/ha active ingredient, observed 17th to 25th day after application; for inhibition at 31 g/ha: Sida spinosa, read-out: Growth inhibition rate (%) Prickly sida
Source text: as §1, §2

[10] = tested on: redroot pigweed (Amaranthus retroflexus L.); experiment: Test Example 1: foliar treatment, upland pot test, redroot pigweed; settings: 31 g/ha active ingredient, observed 17th to 25th day after application; for inhibition at 31 g/ha: Amaranthus retroflexus, read-out: Growth inhibition rate (%) Redroot pigweed
Source text: as §1, §2

[11] = tested on: wheat (Triticum spp.); experiment: Test Example 2: soil application on the day after sowing, wheat; settings: 250 g/ha active ingredient, observed 19th to 28th day after application; for inhibition at 250 g/ha: Triticum, read-out: Growth inhibition rate (%) Wheat
Source text: as §3, §4

[12] = tested on: rice (Oryza sativa L.); experiment: Test Example 2: soil application on the day after sowing, rice; settings: 250 g/ha active ingredient, observed 19th to 28th day after application; for inhibition at 250 g/ha: Oryza sativa, read-out: Growth inhibition rate (%) Rice
Source text: as §3, §4

[13] = tested on: rice (Oryza sativa L.); experiment: Test Example 1: foliar treatment, upland pot test, rice; settings: 31 g/ha active ingredient, observed 17th to 25th day after application; for inhibition at 31 g/ha: Oryza sativa, read-out: Growth inhibition rate (%) Rice
Source text: as §1, §2

[14] = tested on: barnyardgrass (Echinochloa crus-galli L.); experiment: Test Example 2: soil application on the day after sowing, barnyardgrass; settings: 250 g/ha active ingredient, observed 19th to 28th day after application; for inhibition at 250 g/ha: Echinochloa crus-galli, read-out: Growth inhibition rate (%) Barnyardgrass
Source text: as §3, §4

[15] = tested on: wheat (Triticum spp.); experiment: Test Example 1: foliar treatment, upland pot test, wheat; settings: 31 g/ha active ingredient, observed 17th to 25th day after application; for inhibition at 31 g/ha: Triticum, read-out: Growth inhibition rate (%) Wheat
Source text: as §1, §2

[16] = tested on: crabgrass (Digitaria sanguinalis L.); experiment: Test Example 1: foliar treatment, upland pot test, crabgrass; settings: 31 g/ha active ingredient, observed 17th to 25th day after application; for inhibition at 31 g/ha: Digitaria sanguinalis, read-out: Growth inhibition rate (%) Crabgrass
Source text: as §1, §2

[17] = tested on: green foxtail (Setaria viridis L.); experiment: Test Example 1: foliar treatment, upland pot test, green foxtail; settings: 31 g/ha active ingredient, observed 17th to 25th day after application; for inhibition at 31 g/ha: Setaria viridis, read-out: Growth inhibition rate (%) Green foxtail
Source text: as §1, §2

[18] = tested on: redroot pigweed (Amaranthus retroflexus L.); experiment: Test Example 2: soil application on the day after sowing, redroot pigweed; settings: 250 g/ha active ingredient, observed 19th to 28th day after application; for inhibition at 250 g/ha: Amaranthus retroflexus, read-out: Growth inhibition rate (%) Redroot pigweed
Source text: as §3, §4

[19] = tested on: corn (Zea mays L.); experiment: Test Example 2: soil application on the day after sowing, corn; settings: 250 g/ha active ingredient, observed 19th to 28th day after application; for inhibition at 250 g/ha: Zea mays, read-out: Growth inhibition rate (%) Corn
Source text: as §3, §4

[20] = tested on: soybean (Glycine max Merr.); experiment: Test Example 1: foliar treatment, upland pot test, soybean; settings: 31 g/ha active ingredient, observed 17th to 25th day after application
Source text: as §1, §2

Row | Structure (SMILES) | inhibition at 31 g/ha [1] | inhibition at 250 g/ha [2] | inhibition at 250 g/ha [3] | inhibition at 31 g/ha [4] | inhibition at 250 g/ha [5] | inhibition at 31 g/ha [6] | inhibition at 250 g/ha [7] | inhibition at 250 g/ha [8] | inhibition at 31 g/ha [9] | inhibition at 31 g/ha [10] | inhibition at 250 g/ha [11] | inhibition at 250 g/ha [12] | inhibition at 31 g/ha [13] | inhibition at 250 g/ha [14] | inhibition at 31 g/ha [15] | inhibition at 31 g/ha [16] | inhibition at 31 g/ha [17] | inhibition at 250 g/ha [18] | inhibition at 250 g/ha [19] | Growth inhibition rate (%) Corn [1] | other results
1 | CCn1ncc(C(=O)c2ccc(S(C)(=O)=O)c(C(=O)OC)c2C)c1O [compound 127] | 40% | 70% | 100% | 90% | 60% | 100% | 100% | 50% | 80% | 100% | 10% | 70% | 90% | 85% | 0% | 90% | 90% | 100% | 0% | – | –
2 | Cc1c(C(=O)c2cnn(C)c2O)ccc(S(C)(=O)=O)c1OC(C)C [compound 145] | – | – | – | – | – | – | – | – | – | – | – | – | – | – | – | – | – | – | – | 0% | Growth inhibition rate (%) Velvetleaf [2]: 40%; Growth inhibition rate (%) Soybean [20]: 70%; Growth inhibition rate (%) Crabgrass [3]: 90%; Growth inhibition rate (%) Barnyardgrass [4]: 70%; Growth inhibition rate (%) Prickly sida [5]: 60%; Growth inhibition rate (%) Velvetleaf [6]: 85%; Growth inhibition rate (%) Green foxtail [7]: 30%; Growth inhibition rate (%) Soybean [8]: 0%; Growth inhibition rate (%) Redroot pigweed [10]: 90%; Growth inhibition rate (%) Wheat [11]: 0%; Growth inhibition rate (%) Rice [12]: 0%; Growth inhibition rate (%) Rice [13]: 60%; Growth inhibition rate (%) Barnyardgrass [14]: 60%; Growth inhibition rate (%) Wheat [15]: 0%; Growth inhibition rate (%) Crabgrass [16]: 60%; Growth inhibition rate (%) Green foxtail [17]: 75%; Growth inhibition rate (%) Redroot pigweed [18]: 60%; Growth inhibition rate (%) Corn [19]: 0%
3 | COCCOc1c(S(C)(=O)=O)ccc(C(=O)c2c(C)nn(C(C)C)c2O)c1C [compound 260] | – | – | – | – | – | – | – | – | – | – | – | – | – | – | – | – | – | – | – | 0% | Growth inhibition rate (%) Velvetleaf [2]: 70%; Growth inhibition rate (%) Soybean [20]: 40%; Growth inhibition rate (%) Crabgrass [3]: 100%; Growth inhibition rate (%) Barnyardgrass [4]: 95%; Growth inhibition rate (%) Prickly sida [5]: 60%; Growth inhibition rate (%) Velvetleaf [6]: 70%; Growth inhibition rate (%) Green foxtail [7]: 100%; Growth inhibition rate (%) Prickly sida [9]: 30%; Growth inhibition rate (%) Redroot pigweed [10]: 90%; Growth inhibition rate (%) Wheat [11]: 20%; Growth inhibition rate (%) Rice [12]: 100%; Growth inhibition rate (%) Rice [13]: 70%; Growth inhibition rate (%) Barnyardgrass [14]: 100%; Growth inhibition rate (%) Wheat [15]: 0%; Growth inhibition rate (%) Crabgrass [16]: 80%; Growth inhibition rate (%) Green foxtail [17]: 70%; Growth inhibition rate (%) Redroot pigweed [18]: 100%; Growth inhibition rate (%) Corn [19]: 60%
4 | COC(=O)Cc1c(S(C)(=O)=O)ccc(C(=O)c2cnn(C)c2O)c1C [compound 156] | – | – | – | – | – | – | – | – | – | – | – | – | – | – | – | – | – | – | – | 0% | Growth inhibition rate (%) Velvetleaf [2]: 80%; Growth inhibition rate (%) Crabgrass [3]: 95%; Growth inhibition rate (%) Barnyardgrass [4]: 75%; Growth inhibition rate (%) Prickly sida [5]: 80%; Growth inhibition rate (%) Velvetleaf [6]: 80%; Growth inhibition rate (%) Green foxtail [7]: 50%; Growth inhibition rate (%) Soybean [8]: 0%; Growth inhibition rate (%) Prickly sida [9]: 60%; Growth inhibition rate (%) Redroot pigweed [10]: 70%; Growth inhibition rate (%) Wheat [11]: 0%; Growth inhibition rate (%) Rice [12]: 60%; Growth inhibition rate (%) Rice [13]: 70%; Growth inhibition rate (%) Barnyardgrass [14]: 60%; Growth inhibition rate (%) Wheat [15]: 0%; Growth inhibition rate (%) Crabgrass [16]: 90%; Growth inhibition rate (%) Green foxtail [17]: 70%; Growth inhibition rate (%) Redroot pigweed [18]: 100%; Growth inhibition rate (%) Corn [19]: 0%
5 | CCOc1c(S(C)(=O)=O)ccc(C(=O)c2cnn(C)c2O)c1C [compound 144] | 10% | 50% | 100% | 98% | 50% | 100% | 70% | 0% | 100% | 100% | 0% | 70% | 75% | 80% | 20% | 95% | 100% | 75% | 0% | – | –
6 | COC(=O)c1c(S(C)(=O)=O)ccc(C(=O)c2cnn(C)c2O)c1C [compound 126] | 5% | 70% | 100% | 95% | 70% | 100% | 70% | 60% | 90% | 100% | 10% | 95% | 100% | 90% | 0% | 80% | 100% | 100% | 0% | – | –

From patent US20100317528A1, “HERBICIDE CONTAINING BENZOYLPYRAZOLE COMPOUND” (ISHIHARA SANGYO KAISHA, LTD., priority 2006, published 2010)
